Molecules are shown by their SMILES. pEC50, pIC50: −log10 of the molar value.

The target of the first assay is T1, KRAS(G12V)/SOS1 (Homo sapiens, UniProt P01116, G12V).
T1 construct: purchased Cisbio 63ADK000CB18PEH
T1 sequence (P01116 1-188 isoform P01116-2 G12V): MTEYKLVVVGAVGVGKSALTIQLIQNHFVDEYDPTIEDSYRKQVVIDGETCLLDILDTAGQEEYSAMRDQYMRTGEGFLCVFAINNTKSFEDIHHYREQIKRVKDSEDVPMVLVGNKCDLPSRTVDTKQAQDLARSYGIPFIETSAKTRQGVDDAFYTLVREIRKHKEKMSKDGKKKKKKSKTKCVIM
In words: KRAS(G12V)/SOS1 homogeneous time-resolved fluorescence (HTRF) assay. It counts as binding. The following applies: absence of GTP; 4° C., 3 hours; read-out: HTRF of KRASG12V-SOS1. The procedure: Binding of test compounds to KRAS(G12V) target protein, which in turn blocks KRAS(G12V) interaction with the SOS1 protein, was measured in the absences of GTP by homogeneous time-resolved fluorescence using the KRAS-G12V/SOS1 Binding Assay Kit (Cisbio, 63ADK000CB18PEH), following the manufacturer's instructions, except as noted. 3-fold serial dilutions of each test compound were prepared ranging from 20 µM to 1.02 nM. The test compound was mixed and incubated with reaction components, incubated in a sealed plate at 4° C. for 3 hours and fluorescence was measured using a PerkinElmer Envision plate reader. The KRAS(G12V)-SOS1 IC50 values (the concentration of 50% of the maximal inhibition) were calculated using GraphPad Prism 8.0 software.
Background: Time-resolved FRET reads energy transfer from a long-lived donor to a nearby acceptor.
Turning to `C#Cc1c(F)ccc2cc(O)cc(-c3ncc4c(N5CC6CCC(C5)N6C(=O)CC5CC5)nc(OCC5(CN6CCC(F)CC6)CC5)nc4c3F)c12` [Example 27], the pIC50 is 6.00 to 7.00.
Same read-out and setting: the value for `C#Cc1c(F)ccc2cc(O)cc(-c3ncc4c(N5CC6CCC(C5)N6C(=O)c5nnn[nH]5)nc(OCC5(CN6CCC(F)CC6)CC5)nc4c3F)c12` [Example 28] was 6.00 to 7.00; that for `C#Cc1c(F)ccc2cc(O)cc(-c3ncc4c(N5CC6CCC(C5)N6C(=O)NC#N)nc(OCC5(CN6CCC(F)CC6)CC5)nc4c3F)c12` [Example 29] was 6.00 to 7.00; that for `C#Cc1c(F)ccc2cc(O)cc(-c3ncc4c(N5CC6CCC(C5)N6C(=O)c5c[nH]cn5)nc(OCC5(CN6CCC(F)CC6)CC5)nc4c3F)c12` [Example 30] was 6.00 to 7.00.
For the molecule `C#Cc1c(F)ccc2cc(O)cc(-c3ncc4c(N5CC6CCC(C5)N6CC)nc(OCC5(CN6CCC(F)CC6)CC5)nc4c3F)c12` [Example 31], the pIC50 is 6.00 to 7.00.
The same measure, in the same setting: the value for `C#Cc1c(F)ccc2cc(O)cc(-c3ncc4c(N5CC6CCC(C5)N6C(=O)NC(C)C(F)(F)F)nc(OCC5(CN6CCC(F)CC6)CC5)nc4c3F)c12` (stereo not drawn) [Example 32] was 6.00 to 7.00; that for `C#Cc1c(F)ccc2cc(O)cc(-c3ncc4c(N5CC6CCC(C5)N6S(=O)(=O)CC#N)nc(OCC5(CN6CCC(F)CC6)CC5)nc4c3F)c12` [Example 33] was 6.00 to 7.00; that for `C#Cc1c(F)ccc2cc(O)cc(-c3nc(OC)c4c(N5CC6CCC(C5)N6C(=O)NC5(C#N)CC5)nc(OCC5(CN6CCC(F)CC6)CC5)nc4c3F)c12` [Example 34] was 6.00 to 7.00.
The same measure, in the same setting: the value for `C#Cc1c(F)ccc2cc(O)cc(-c3ncc4c(N5CC6CCC(C5)N6C(=O)NC5(C#N)CC5)nc(OCC5(CN6CCC(F)CC6)CC5)nc4c3F)c12` [Example 35] was 6.00 to 7.00; that for `C#Cc1c(F)ccc2cc(O)cc(-c3ncc4c(N5CC6CCC(C5)N6C(=O)[C@H]5CCN(C(=O)OC)C5)nc(OCC5(CN6CCC(F)CC6)CC5)nc4c3F)c12` [Example 36] was 6.00 to 7.00.
For the molecule `C#Cc1c(F)ccc2cc(O)cc(-c3nc(OC)c4c(N5CC6CCC(C5)N6C(=O)NCC#N)nc(OCC5(CN6CCC(F)CC6)CC5)nc4c3F)c12` [Example 37], the pIC50 was 6.00 to 7.00.
Same read-out and setting: the value for `C#Cc1c(F)ccc2cc(O)cc(-c3nc(OC)c4c(N5CC6CCC(C5)N6C(=O)NC(C)C#N)nc(OCC5(CN6CCC(F)CC6)CC5)nc4c3F)c12` (stereo not drawn) [Example 38] was > 7.00; that for `C#Cc1c(F)ccc2cc(O)cc(-c3ncc4c(N5CC6CCC(C5)N6C(=O)CC(F)(F)F)nc(OCC5(CN6CCC(F)CC6)CC5)nc4c3F)c12` [Example 39] was 6.00 to 7.00.
Same read-out and setting: the value for `C#Cc1c(F)ccc2cc(O)cc(-c3ncc4c(N5CC6CCC(C5)N6C(=O)OC(C)(C)C)nc(OCC5(CN6CCC(F)CC6)CC5)nc4c3F)c12` [Example 40] was 6.00 to 7.00.
Still for that read-out and setting: the value for `C#Cc1c(F)ccc2cc(O)cc(-c3ncc4c(N5CC6CCC(C5)N6C(C)=O)nc(OCC5(CN6CCC(F)CC6)CC5)nc4c3F)c12` [Example 41] was 6.00 to 7.00.

The subject of the next assay is NCIH727 cells. The assay is described as follows: Cancer cell line proliferation (CellTiter-Glo), NCI-H727. It counts as cell-based. The following applies: Homo sapiens, 72 h, NCIH727 lung carcinoid, heterozygous G12V. The method in brief:
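NCI-H727 cells (1,000/well) were grown 72 h at 37 °C/5% CO2, then exposed to compound at various concentrations (0.5% DMSO final) for a further 72 h. Viability was read by CellTiter-Glo luminescence, and IC50 values were calculated from the dose-response.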
(In general: ATP-based viability assays read luminescence as a measure of living cells.)
As to `C#Cc1c(F)ccc2cc(O)cc(-c3ncc4c(N5CC6CCC(C5)N6C(=O)CC5CC5)nc(OCC5(CN6CCC(F)CC6)CC5)nc4c3F)c12` [Example 27], the pEC50 was < 6.00.
Still for that read-out and setting: the value for `C#Cc1c(F)ccc2cc(O)cc(-c3ncc4c(N5CC6CCC(C5)N6C(=O)c5nnn[nH]5)nc(OCC5(CN6CCC(F)CC6)CC5)nc4c3F)c12` [Example 28] was < 6.00; that for `C#Cc1c(F)ccc2cc(O)cc(-c3ncc4c(N5CC6CCC(C5)N6C(=O)NC#N)nc(OCC5(CN6CCC(F)CC6)CC5)nc4c3F)c12` [Example 29] was < 6.00.
As to `C#Cc1c(F)ccc2cc(O)cc(-c3ncc4c(N5CC6CCC(C5)N6C(=O)c5c[nH]cn5)nc(OCC5(CN6CCC(F)CC6)CC5)nc4c3F)c12` [Example 30], the pEC50 is < 6.00.
The same measure, in the same setting: the value for `C#Cc1c(F)ccc2cc(O)cc(-c3ncc4c(N5CC6CCC(C5)N6CC)nc(OCC5(CN6CCC(F)CC6)CC5)nc4c3F)c12` [Example 31] was < 6.00.
Same read-out and setting: the value for `C#Cc1c(F)ccc2cc(O)cc(-c3ncc4c(N5CC6CCC(C5)N6C(=O)NC(C)C(F)(F)F)nc(OCC5(CN6CCC(F)CC6)CC5)nc4c3F)c12` (stereo not drawn) [Example 32] was < 6.00; that for `C#Cc1c(F)ccc2cc(O)cc(-c3ncc4c(N5CC6CCC(C5)N6S(=O)(=O)CC#N)nc(OCC5(CN6CCC(F)CC6)CC5)nc4c3F)c12` [Example 33] was < 6.00.
Still for that read-out and setting: the value for `C#Cc1c(F)ccc2cc(O)cc(-c3nc(OC)c4c(N5CC6CCC(C5)N6C(=O)NC5(C#N)CC5)nc(OCC5(CN6CCC(F)CC6)CC5)nc4c3F)c12` [Example 34] was 6.00 to 7.00; that for `C#Cc1c(F)ccc2cc(O)cc(-c3ncc4c(N5CC6CCC(C5)N6C(=O)NC5(C#N)CC5)nc(OCC5(CN6CCC(F)CC6)CC5)nc4c3F)c12` [Example 35] was 6.00 to 7.00; that for `C#Cc1c(F)ccc2cc(O)cc(-c3ncc4c(N5CC6CCC(C5)N6C(=O)[C@H]5CCN(C(=O)OC)C5)nc(OCC5(CN6CCC(F)CC6)CC5)nc4c3F)c12` [Example 36] was < 6.00.
`C#Cc1c(F)ccc2cc(O)cc(-c3nc(OC)c4c(N5CC6CCC(C5)N6C(=O)NCC#N)nc(OCC5(CN6CCC(F)CC6)CC5)nc4c3F)c12` [Example 37] had a pEC50 of 6.00 to 7.00.
`C#Cc1c(F)ccc2cc(O)cc(-c3nc(OC)c4c(N5CC6CCC(C5)N6C(=O)NC(C)C#N)nc(OCC5(CN6CCC(F)CC6)CC5)nc4c3F)c12` (stereo not drawn) [Example 38] showed a pEC50 of 6.00 to 7.00.
Still for that read-out and setting: the value for `C#Cc1c(F)ccc2cc(O)cc(-c3ncc4c(N5CC6CCC(C5)N6C(=O)CC(F)(F)F)nc(OCC5(CN6CCC(F)CC6)CC5)nc4c3F)c12` [Example 39] was < 6.00; that for `C#Cc1c(F)ccc2cc(O)cc(-c3ncc4c(N5CC6CCC(C5)N6C(=O)OC(C)(C)C)nc(OCC5(CN6CCC(F)CC6)CC5)nc4c3F)c12` [Example 40] was < 6.00.
On the same count and under the same terms, the value for `C#Cc1c(F)ccc2cc(O)cc(-c3ncc4c(N5CC6CCC(C5)N6C(C)=O)nc(OCC5(CN6CCC(F)CC6)CC5)nc4c3F)c12` [Example 41] was < 6.00.

The next assay concerns SW620 cells. The assay is described as follows: Cancer cell line proliferation (CellTiter-Glo), SW620. It counts as cell-based. The following applies: Homo sapiens, SW-620, SW620 colorectal adenocarcinoma, homozygous G12V, 72 hr. On the procedure: Cell lines were cultured essentially according to ATCC recommendations. SW620 and NCIH727 cells were plated in 384-well tissue culture plates at 1,000 cells/well and incubated at 37° C./5% CO2 for 72 hr in 40 μl of media. […] Each cell line was then treated with test compounds at various concentrations with a final concentration of 0.5% DMSO/well, and then incubated at 37° C./5% CO2 for 72 hr. 40 μl of CellTiter-Glo® Reagent (Promega Corporation, Madison, WI) was added to each well and processed according manufacturer's protocol. Results were analyzed and IC50 values were calculated in GraphPad 8.0 software.
Consider `C#Cc1c(F)ccc2cc(O)cc(-c3ncc4c(N5CC6CCC(C5)N6C(=O)CC5CC5)nc(OCC5(CN6CCC(F)CC6)CC5)nc4c3F)c12` [Example 27], for which the negative logarithm of the EC50 (pEC50) is < 6.00.
Same read-out and setting: the value for `C#Cc1c(F)ccc2cc(O)cc(-c3ncc4c(N5CC6CCC(C5)N6C(=O)c5nnn[nH]5)nc(OCC5(CN6CCC(F)CC6)CC5)nc4c3F)c12` [Example 28] was < 6.00.
Same read-out and setting: the value for `C#Cc1c(F)ccc2cc(O)cc(-c3ncc4c(N5CC6CCC(C5)N6C(=O)NC#N)nc(OCC5(CN6CCC(F)CC6)CC5)nc4c3F)c12` [Example 29] was < 6.00.
On the same count and under the same terms, the value for `C#Cc1c(F)ccc2cc(O)cc(-c3ncc4c(N5CC6CCC(C5)N6C(=O)c5c[nH]cn5)nc(OCC5(CN6CCC(F)CC6)CC5)nc4c3F)c12` [Example 30] was < 6.00; that for `C#Cc1c(F)ccc2cc(O)cc(-c3ncc4c(N5CC6CCC(C5)N6CC)nc(OCC5(CN6CCC(F)CC6)CC5)nc4c3F)c12` [Example 31] was < 6.00; that for `C#Cc1c(F)ccc2cc(O)cc(-c3ncc4c(N5CC6CCC(C5)N6C(=O)NC(C)C(F)(F)F)nc(OCC5(CN6CCC(F)CC6)CC5)nc4c3F)c12` (stereo not drawn) [Example 32] was < 6.00.
In the case of `C#Cc1c(F)ccc2cc(O)cc(-c3ncc4c(N5CC6CCC(C5)N6S(=O)(=O)CC#N)nc(OCC5(CN6CCC(F)CC6)CC5)nc4c3F)c12` [Example 33], the pEC50 is < 6.00.
Same read-out and setting: the value for `C#Cc1c(F)ccc2cc(O)cc(-c3nc(OC)c4c(N5CC6CCC(C5)N6C(=O)NC5(C#N)CC5)nc(OCC5(CN6CCC(F)CC6)CC5)nc4c3F)c12` [Example 34] was 6.00 to 7.00; that for `C#Cc1c(F)ccc2cc(O)cc(-c3ncc4c(N5CC6CCC(C5)N6C(=O)NC5(C#N)CC5)nc(OCC5(CN6CCC(F)CC6)CC5)nc4c3F)c12` [Example 35] was 6.00 to 7.00; that for `C#Cc1c(F)ccc2cc(O)cc(-c3ncc4c(N5CC6CCC(C5)N6C(=O)[C@H]5CCN(C(=O)OC)C5)nc(OCC5(CN6CCC(F)CC6)CC5)nc4c3F)c12` [Example 36] was < 6.00.
The same measure, in the same setting: the value for `C#Cc1c(F)ccc2cc(O)cc(-c3nc(OC)c4c(N5CC6CCC(C5)N6C(=O)NCC#N)nc(OCC5(CN6CCC(F)CC6)CC5)nc4c3F)c12` [Example 37] was 6.00 to 7.00; that for `C#Cc1c(F)ccc2cc(O)cc(-c3nc(OC)c4c(N5CC6CCC(C5)N6C(=O)NC(C)C#N)nc(OCC5(CN6CCC(F)CC6)CC5)nc4c3F)c12` (stereo not drawn) [Example 38] was 6.00 to 7.00; that for `C#Cc1c(F)ccc2cc(O)cc(-c3ncc4c(N5CC6CCC(C5)N6C(=O)CC(F)(F)F)nc(OCC5(CN6CCC(F)CC6)CC5)nc4c3F)c12` [Example 39] was < 6.00.
The same measure, in the same setting: the value for `C#Cc1c(F)ccc2cc(O)cc(-c3ncc4c(N5CC6CCC(C5)N6C(=O)OC(C)(C)C)nc(OCC5(CN6CCC(F)CC6)CC5)nc4c3F)c12` [Example 40] was < 6.00; that for `C#Cc1c(F)ccc2cc(O)cc(-c3ncc4c(N5CC6CCC(C5)N6C(C)=O)nc(OCC5(CN6CCC(F)CC6)CC5)nc4c3F)c12` [Example 41] was < 6.00.

What is called pEC50 is the EC50 on a negative log10 scale, so that one unit is a factor of ten. A lower pEC50 goes with a high EC50.

(Values after patent US20260200946A1, “KRAS(G12V) INHIBITORS” (Ranok Therapeutics (Hangzhou) Co. Ltd., priority 2022, published 2026).)
